Test results as given in patent US9357776B2, “Method for producing pest control agent” (priority 2011, dated 2016).

Tests used:
Plutella xylostella = assay: Test for control of diamondback moth (leaf disk); format: in vivo; conditions: in Brassica oleracea, foliar, 72 h, read-out: Mortality rate, Plutella xylostella
Description: (§1) A leaf disk having a diameter of 5.0 cm was cut out from cabbage grown in a pot. Then, a liquid agent prepared to be 50% acetone-water (to which 0.05% Tween20 was added) and to contain 500 ppm of a compound represented by formula (I) was spread over the leaf disk. After the leaf disk was air dried, second instar larvae were released on the leaf disk. After that, the leaf disk was allowed to stand in a thermostatic chamber at 25° C. (16-hour light period and 8-hour dark period). […] The test was duplicated. Mortality rate (%)=[Number of dead insects/(Number of survived insects+Number of dead insects)]×100

Aphis gossypii = assay: Test for control of cotton aphid (leaf disk); format: in vivo; conditions: in Cucumis sativus, foliar, 72 h, read-out: Mortality rate, Aphis gossypii
Description: as §1, with “2.0” for “5.0”, “cucumber (Cucumis sativus L.)” for “cabbage”, “first” for “second”

Laodelphax striatellus [1] = assay: Test for control of Laodelphax striatellus (wheat seedling root treatment); format: in vivo; conditions: 96 h, read-out: Mortality rate, Laodelphax striatellus
Description: Roots of wheat seedlings 48 hours after seeding were each treated with 200 μL of a liquid agent prepared to be 10% acetone-water, and to contain 100 ppm of a compound represented by formula (I). The agent was absorbed through the roots for 72 hours, and then 10 second instar larvae of Laodelphax striatellus were released on each wheat seedling. After that, the wheat seedlings were allowed to stand in a thermostatic chamber at 25° C. (16-hour light period and 8-hour dark period). […] The test was duplicated.

Nilaparvata lugens = assay: Test for control of Nilaparvata lugens, sensitive and resistant strains (rice soil drench); format: in vivo; conditions: three days after release
Description: (§2) Rice plant seedlings grown in a pot were treated by soil drench with a liquid agent prepared to be 10% acetone-water, and to contain a predetermined concentration of a compound of the present invention. Three days after the treatment, 10 sensitive or resistant strain of second instar larvae of Nilaparvata lugens were released on each of the rice plant seedlings. After that, the rice plant seedlings were allowed to stand in a thermostatic chamber at 25° C. (16-hour light period and 8-hour dark period). […] The test was duplicated. Mortality rate (%)=[Number of dead insects/(Number of survived insects+Number of dead insects)]×100
Note that the pests tested were as follows: Insects bred for generations in a room for a long period (sensitive strain), (I) Insects collected in Kumamoto Prefecture in 2007, and bred for generations in a room (field-collected strain: resistant strain), or (II) Insects collected in Fukuoka Prefecture in 2005, and bred for generations in a room (field-collected strain).

Laodelphax striatellus [2] = assay: Test for control of Laodelphax striatellus, sensitive and resistant strains (rice soil drench); format: in vivo; conditions: three days after release
Description: as §2, with “Laodelphax striatellus” for “Nilaparvata lugens”, “that” for “that,”
Note that the pests tested were insects bred for generations in a room for a long period (sensitive strain), and insects collected in Kumamoto Prefecture in 2006, and bred for generations in a room (field-collected strain: resistant strain).

[3] = tested on: crude enzyme extraction liquid of housefly (Musca domestica); assay: In vitro metabolism test using crude enzyme extraction liquid of housefly; format: in vitro ADME; conditions: 25° C., 40 hours, LC/MS
Description: As described in Pest Management Science (2003), 59(3), 347-352, and Journal of Pesticide Science (2004), 29(2), 110-116, imidacloprid is known to be inactivated by oxidative metabolism, which is thought to be one of the mechanisms for the acquisition of the resistance. To investigate effects on insects acquiring such resistance, the following experiment was carried out.
To adult housefly (Musca domestica) (0.645 g), 10 ml of a potassium phosphate buffer (pH 7.4, containing 1 mM EDTA) was added, and the adult housefly was sufficiently ground with Physcotron (Nichion Irika Kikai Seisakusho). After that, the ground material was centrifuged under conditions of 10,000 g and 15 minutes. The obtained supernatant was further centrifuged under conditions of 100,000 g and 60 minutes. Thus, precipitates were obtained. The precipitates were dissolved in 1 ml of a potassium phosphate buffer, and this solution was used as a crude enzyme solution. The enzyme extraction operations were all conducted on ice or under a condition of 4° C.
Reagents were mixed with each other at the following ratio in a tube having a capacity of 1.5 mL, and allowed to react with each other at 25° C. for 40 hours. After the reaction, 1 mL of acetone was added to the mixture, followed by stirring. Then, the formed precipitates were removed by centrifugation at 12000 rpm for 5 minutes. […]

[4] = tested on: Haemaphysalis longicornis; assay: Test for control of Haemaphysalis longicornis (dry film in glass vial); format: in vivo; conditions: 24 h, read-out: Mortality rate
Description: Into a glass vial having a capacity of 4 mL, 30 μL of an acetone solution containing 200 ppm or 10 ppm of a compound of the present invention was introduced. The vial was placed on a shaker, and air dried, while being rotated. Thus, a dry film of the compound was formed on the inner wall of the vial. After the vial was dried for 24 hours or longer, 10 larvae of Haemaphysalis longicornis were released in the vial, and then the vial was capped. The vial was allowed to stand in a thermostatic chamber under conditions of 25° C., a humidity of 85%, and total darkness. […] The test was duplicated. Mortality rate (%)=[Number of dead insects/(Number of survived insects+Number of dead insects)]×100

[5] = tested on: Haemaphysalis longicornis; assay: Effect of controlling Haemaphysalis longicornis on body surface of mouse; format: in vivo; conditions: mouse (ICR, male), 20 μL of 1000-fold diluted drop preparation (48% by weight Compound 1 in ethanol), three days after release
Description: Hair on the back of a mouse (ICR, male, 5-weeks old) in a region having a diameter of approximately 2 cm was shaved, and a 15-mL polystyrene conical tube cut to have a height of approximately 1.5 cm was bonded to this region with an instant adhesive.
Then, 20 μL of a 1000-fold diluted liquid of a pest control agent prepared according to the following formulation was added dropwise onto the body surface of the mouse within the bonded tube. After sufficient drying, […] larvae of Haemaphysalis longicornis were released into the tube, and the tube was capped.
Formulation [Drop Preparation]
The components were uniformly mixed with each other, and a drop preparation was obtained. blood-sucking inhibition rate (%)=100−[Number of […]/(Number of survived ticks+Number of dead ticks)]×100

[6] = 0.005 mg/seedling, all the strains
[7] = 0.01 mg/seedling, sensitive strain
[8] = 0.01 mg/seedling, strain (II) (Fukuoka 2005, field-collected)
[9] = 0.01 mg/seedling, field-collected strain (Kumamoto 2006, resistant)

| Compound | mortality at 500 ppm (Plutella xylostella) [%] | mortality at 500 ppm (Aphis gossypii) [%] | mortality at 100 ppm (Laodelphax striatellus [1]) [%] | also measured |
| --- | --- | --- | --- | --- |
| O=C(N=c1ccccn1Cc1ccc(Cl)nc1)C(F)(F)F [Compound 1, N-[1-((6-Chloropyridin-3-yl)methyl)pyridin-2(1H)-ylidene]-2,2,2-trifluoroacetamide] | 100 | 100 | 100 | Mortality rate (Nilaparvata lugens; [6]): ≥ 90%; Mortality rate (Nilaparvata lugens; 0.05 mg/seedling, all the strains): 100%; Mortality rate (Laodelphax striatellus [2]; [6]): ≥ 90%; total area percentage of metabolites [3]: 0.08; mortality at 10 ppm [4]: ≥ 80%; mortality at 200 ppm [4]: ≥ 80%; blood-sucking inhibition rate [5]: 91% |
| O=C(N=c1ccccn1Cc1cnc(Cl)c(F)c1)C(F)(F)F [Compound 2, N-[1-((6-Chloro-5-fluoropyridin-3-yl)methyl)pyridin-2(1H)-ylidene]-2,2,2-trifluoroacetamide] | 100 | 100 | 100 | Mortality rate (Nilaparvata lugens; [7]): 72%; Mortality rate (Nilaparvata lugens; [8]): 70% |
| O=C(N=c1ccccn1Cc1ccc(Br)nc1)C(F)(F)F [Compound 3, N-[1-((6-Bromopyridin-3-yl)methyl)pyridin-2(1H)-ylidene]-2,2,2-trifluoroacetamide] | 100 | 100 | 100 | Mortality rate (Laodelphax striatellus [2]; [9]): 90%; Mortality rate (Laodelphax striatellus [2]; [7]): 100% |
| O=C(N=c1ccccn1Cc1ccc(Cl)nc1)C(F)(F)Cl [Compound 4, 2-chloro-N-[1-((6-Chloropyridin-3-yl)methyl)pyridin-2(1H)-ylidene]-2,2-difluoroacetamide] | 100 | 100 | 100 |  |
| O=C(N=c1ccccn1Cc1ccc(Cl)nc1)C(Cl)(Cl)Cl [Compound 5, 2,2,2-Trichloro-N-[1-((6-chloropyridin-3-yl)methyl)pyridin-2(1H)-ylidene]acetamide] | 100 | 95 | 75 |  |
| O=C(N=c1ccccn1Cc1cnc(Cl)nc1)C(F)(F)F [Compound 6, N-[1-((2-Chloropyrimidin-5-yl)methyl)pyridin-2(1H)-ylidene]-2,2,2-trifluoroacetamide] | 100 | 100 | 100 |  |
| O=C(N=c1ccccn1Cc1ccc(Cl)nc1)C(F)(F)C(F)(F)F [Compound 7, N-[1-((6-Chloropyridin-3-yl)methyl)pyridin-2(1H)-ylidene]-2,2,3,3,3-pentafluoropropanamide] | 100 | 100 | 100 |  |
| O=C(N=c1ccccn1Cc1ccc(Cl)nc1)C(F)F [Compound 8, N-[1-((6-Chloropyridin-3-yl)methyl)pyridin-2(1H)-ylidene]-2,2-difluoroacetamide] | 100 | 100 | 100 |  |
| O=C(N=c1ccccn1Cc1ccc(F)nc1)C(F)(F)F [Compound 19, N-[1-((6-fluoropyridin-3-yl)methyl)pyridin-2(1H)-ylidene]-2,2,2-trifluoroacetamide] | 100 | 100 | 100 | Mortality rate (Nilaparvata lugens; [7]): 100%; Mortality rate (Nilaparvata lugens; [8]): 93% |
| N#Cc1nn(-c2c(Cl)cc(C(F)(F)F)cc2Cl)c(N)c1[S+]([O-])C(F)(F)F (stereo not shown) [fipronil] |  |  |  | Mortality rate (Laodelphax striatellus [2]; [9]): 70%; Mortality rate (Laodelphax striatellus [2]; [7]): 100% |
| O=[N+]([O-])NC1=NCCN1Cc1ccc(Cl)nc1 [imidacloprid, reference compound] |  |  |  | Mortality rate (Nilaparvata lugens; 0.05 mg/seedling, sensitive strain): 100%; Mortality rate (Nilaparvata lugens; 0.05 mg/seedling, strain (I) (Kumamoto 2007, resistant strain)): 40%; Mortality rate (Nilaparvata lugens; 0.05 mg/seedling, strain (II) (Fukuoka 2005, field-collected)): 60%; Mortality rate (Laodelphax striatellus [2]; [9]): 50%; Mortality rate (Laodelphax striatellus [2]; [7]): 100%; total area percentage of metabolites [3]: 2.55; mortality at 10 ppm [4]: 4% |
